From paper PMC5487684, “Safety, Pharmacokinetics, and Antiviral Activity of a Novel HIV Antiviral, ABX464, in Treatment-Naive HIV-Infected Subjects in a Phase 2 Randomized, Controlled Study” (Antimicrobial Agents and Chemotherapy, 2017)

System: HIV-infected subjects
Assay: Safety and tolerability (TEAEs, ECG, laboratory) after repeated oral administration, phase 2a study
Assay type: in vivo, human
Description: Participants were assigned to one of eight groups; each group (with one exception) included eight subjects receiving either ABX464 (n = 6) or the corresponding placebo (n = 2) according to a randomization code. […] In the present study with HIV-infected subjects, the first dose administered was 25 mg, given once or 3 times a day over a 2- to 3-week period. This initial dose was therefore considered safe for assessment of the safety and tolerability of ABX464 after repeated oral administrations in subjects infected by HIV and determination of the potential effect on the HIV viral load.
The final dosing protocol for each of the eight groups was as follows: group 1, 25 mg every 3 days for 2 to 3 weeks under fasted conditions; group 2, 25 mg once a day (q.d.) for 2 to 3 weeks under fasted conditions; group 3, 50 mg once a day for 2 to 3 weeks under fasted conditions; group 4, 50 mg 3 times a day (t.i.d.) for 4 weeks under fed conditions; group 5, 75 mg once a day for 2 weeks under fed conditions; group 6, 100 mg once a day for 2 to 3 weeks under fasted conditions; group 7, 150 mg every 3 days for 2 to 3 weeks under fed conditions; and group 8, 150 mg once a day for 2 weeks under fed conditions. Per the study protocol, the treatment period was defined as 2 weeks. […] The decision to proceed to the next highest dose was determined by the data and safety monitoring board after review of the laboratory safety data, vital signs, ECGs, and adverse event reports from the group receiving the current dose after 2 weeks of treatment.
Subjects were hospitalized from the day prior to the first dose to at least the morning of day 2. They were orally dosed with 25-mg capsules of ABX464 with 240 ml water under fed or fasted conditions. According to the group, subjects were dosed with 1, 2, 3, 4, or 6 capsules to deliver 25 mg, 50 mg, 75 mg, 100 mg, or 150 mg product, respectively, or the same number of placebo capsules.
Safety assessments and laboratory tests were carried out according to the schedules described in Table S4 for groups dosed every day, every 3 days, and 3 times a day. Follow-up visits were scheduled for 7 days after the last dose and subsequently once every week in order to assess the elimination of the main ABX464 metabolite and to assess the viral load. Follow-up visits were terminated when the virus load was within 0.5 log of the baseline value or after 3 follow-up visits, whichever came first. Prior to the statistical analyses, AEs were coded using the Medical Dictionary for Regulatory Activities (MedDRA dictionary; last available version) in order to be tabulated by system organ class (SOC) and preferred term (PT). The AEs were analyzed according to the treatment emergence phase from the first study drug administration on day 1 up to 48 h after the last study drug administration. The number and percentage of subjects with at least one TEAE were tabulated by SOC and PT for each group and dose. The number of occurrences of TEAEs was also analyzed in the same way by SOC and PT for each group and dose, by grade of severity for each group and dose, and by level of causality to the study drug for each group and dose.

[1] = Group 2 (n = 6), 25 mg q.d., fasted, Moderate
[2] = Group 3 (n = 7), 50 mg q.d., fasted, Mild
[3] = Group 3 (n = 7), 50 mg q.d., fasted, Moderate
[4] = Group 4 (n = 7), 50 mg t.i.d., fed, Mild
[5] = Group 4 (n = 7), 50 mg t.i.d., fed, Moderate

## FC(F)(F)Oc1ccc(Nc2ccc3cccc(Cl)c3n2)cc1 [ABX464]
[1]
  Subjects experiencing at least one TEAE: Total: 0 (0.0) No. (%)
  Subjects experiencing at least one TEAE: Upper abdominal pain: 0 (0.0) No. (%)
  Subjects experiencing at least one TEAE: Vomiting: 0 (0.0) No. (%)
[2]
  Subjects experiencing at least one TEAE: Abdominal pain: 0 (0.0) No. (%)
  Subjects experiencing at least one TEAE: Arthralgia: 1 (14.3) No. (%)
  Subjects experiencing at least one TEAE: Back pain: 0 (0.0) No. (%)
  Subjects experiencing at least one TEAE: Diarrhea: 0 (0.0) No. (%)
  Subjects experiencing at least one TEAE: Flank pain: 0 (0.0) No. (%)
  Subjects experiencing at least one TEAE: Gastrointestinal disorders: 1 (14.3) No. (%)
  Subjects experiencing at least one TEAE: Headache: 1 (14.3) No. (%)
  Subjects experiencing at least one TEAE: Injury, poisoning, and procedural complications: 0 (0.0) No. (%)
  Subjects experiencing at least one TEAE: Musculoskeletal and connective tissue disorders: 1 (14.3) No. (%)
  Subjects experiencing at least one TEAE: Nausea: 1 (14.3) No. (%)
  Subjects experiencing at least one TEAE: Neck pain: 0 (0.0) No. (%)
  Subjects experiencing at least one TEAE: Nervous system disorders: 1 (14.3) No. (%)
  Subjects experiencing at least one TEAE: Pain in extremity: 0 (0.0) No. (%)
  Subjects experiencing at least one TEAE: Sciatica, back pain: 0 (0.0) No. (%)
  Subjects experiencing at least one TEAE: Skin abrasion: 0 (0.0) No. (%)
  Subjects experiencing at least one TEAE: Total: 2 (28.6) No. (%)
  Subjects experiencing at least one TEAE: Upper abdominal pain: 0 (0.0) No. (%)
  Subjects experiencing at least one TEAE: Vomiting: 1 (14.3) No. (%)
[3]
  Subjects experiencing at least one TEAE: Abdominal pain: 0 (0.0) No. (%)
  Subjects experiencing at least one TEAE: Arthralgia: 0 (0.0) No. (%)
  Subjects experiencing at least one TEAE: Back pain: 0 (0.0) No. (%)
  Subjects experiencing at least one TEAE: Diarrhea: 0 (0.0) No. (%)
  Subjects experiencing at least one TEAE: Flank pain: 0 (0.0) No. (%)
  Subjects experiencing at least one TEAE: Headache: 1 (14.3) No. (%)
  Subjects experiencing at least one TEAE: Injury, poisoning, and procedural complications: 0 (0.0) No. (%)
  Subjects experiencing at least one TEAE: Musculoskeletal and connective tissue disorders: 0 (0.0) No. (%)
  Subjects experiencing at least one TEAE: Nausea: 0 (0.0) No. (%)
  Subjects experiencing at least one TEAE: Neck pain: 0 (0.0) No. (%)
  Subjects experiencing at least one TEAE: Nervous system disorders: 1 (14.3) No. (%)
  Subjects experiencing at least one TEAE: Pain in extremity: 0 (0.0) No. (%)
  Subjects experiencing at least one TEAE: Sciatica, back pain: 0 (0.0) No. (%)
  Subjects experiencing at least one TEAE: Skin abrasion: 0 (0.0) No. (%)
  Subjects experiencing at least one TEAE: Total: 1 (14.3) No. (%)
  Subjects experiencing at least one TEAE: Upper abdominal pain: 0 (0.0) No. (%)
  Subjects experiencing at least one TEAE: Vomiting: 0 (0.0) No. (%)
[4]
  Subjects experiencing at least one TEAE: Abdominal pain: 0 (0.0) No. (%)
  Subjects experiencing at least one TEAE: Arthralgia: 1 (14.3) No. (%)
  Subjects experiencing at least one TEAE: Back pain: 2 (28.6) No. (%)
  Subjects experiencing at least one TEAE: Diarrhea: 0 (0.0) No. (%)
  Subjects experiencing at least one TEAE: Flank pain: 0 (0.0) No. (%)
  Subjects experiencing at least one TEAE: Gastrointestinal disorders: 3 (42.9) No. (%)
  Subjects experiencing at least one TEAE: Headache: 2 (28.6) No. (%)
  Subjects experiencing at least one TEAE: Injury, poisoning, and procedural complications: 0 (0.0) No. (%)
  Subjects experiencing at least one TEAE: Musculoskeletal and connective tissue disorders: 3 (42.9) No. (%)
  Subjects experiencing at least one TEAE: Nausea: 0 (0.0) No. (%)
  Subjects experiencing at least one TEAE: Neck pain: 1 (14.3) No. (%)
  Subjects experiencing at least one TEAE: Nervous system disorders: 2 (28.6) No. (%)
  Subjects experiencing at least one TEAE: Pain in extremity: 1 (14.3) No. (%)
  Subjects experiencing at least one TEAE: Sciatica, back pain: 0 (0.0) No. (%)
  Subjects experiencing at least one TEAE: Skin abrasion: 0 (0.0) No. (%)
  Subjects experiencing at least one TEAE: Total: 7 (100.0) No. (%)
  Subjects experiencing at least one TEAE: Upper abdominal pain: 2 (28.6) No. (%)
  Subjects experiencing at least one TEAE: Vomiting: 1 (14.3) No. (%)
[5]
  Subjects experiencing at least one TEAE: Abdominal pain: 0 (0.0) No. (%)
  Subjects experiencing at least one TEAE: Arthralgia: 0 (0.0) No. (%)
  Subjects experiencing at least one TEAE: Back pain: 0 (0.0) No. (%)
  Subjects experiencing at least one TEAE: Diarrhea: 0 (0.0) No. (%)
  Subjects experiencing at least one TEAE: Flank pain: 0 (0.0) No. (%)
  Subjects experiencing at least one TEAE: Gastrointestinal disorders: 1 (14.3) No. (%)
  Subjects experiencing at least one TEAE: Headache: 0 (0.0) No. (%)
  Subjects experiencing at least one TEAE: Injury, poisoning, and procedural complications: 0 (0.0) No. (%)
  Subjects experiencing at least one TEAE: Musculoskeletal and connective tissue disorders: 0 (0.0) No. (%)
  Subjects experiencing at least one TEAE: Nausea: 0 (0.0) No. (%)
  Subjects experiencing at least one TEAE: Neck pain: 0 (0.0) No. (%)
  Subjects experiencing at least one TEAE: Nervous system disorders: 0 (0.0) No. (%)
  Subjects experiencing at least one TEAE: Pain in extremity: 0 (0.0) No. (%)
  Subjects experiencing at least one TEAE: Sciatica, back pain: 0 (0.0) No. (%)
  Subjects experiencing at least one TEAE: Skin abrasion: 0 (0.0) No. (%)
  Subjects experiencing at least one TEAE: Total: 1 (14.3) No. (%)
  Subjects experiencing at least one TEAE: Upper abdominal pain: 1 (14.3) No. (%)
  Subjects experiencing at least one TEAE: Vomiting: 0 (0.0) No. (%)
Group 5 (n = 6), 75 mg q.d., fed, Mild
  Subjects experiencing at least one TEAE: Abdominal pain: 0 (0.0) No. (%)
